Consider 1 compound from patent publication US12403107B2, “Lipid pharmaceutical preparation and application thereof” (HUZHOU INNOVATION PHARMACEUTICAL CO., LTD., priority 2019, dated 2025).

Read-outs that look alike come from different tables or passages of the source.

The nature of data set [1]: Blood lidocaine concentration after 2-hour constant-rate intramuscular infusion, literature (Ikeda et al.). The class given is in vivo, Rats. Particulars: rat, dose 60 mg/kg, infusion t = 0-2 hours, calculated with elimination half-life = 2 hours, read-out: blood drug concentration of lidocaine.
The conditions of data set [2]: dose 60 mg/kg, infused into the muscle at a constant rate t = 0-2 hours, cited from earlier work.

With `CCN(CC)CC(=O)Nc1c(C)cccc1C` [preparation in the reference, lidocaine], the concentration at 6 h in data set [1] (time 6 hour) is 400 ng/mL. In data set [1] (time 8 hour), the concentration at 8 h is 200 ng/mL. The concentration at 12 h in data set [1] (time 12 hour) is 100 ng/mL. For the same compound, the concentration at 15 h in data set [1] (time 15 hour) is 35.3 ng/mL. In addition, in data set [1] (time 18 hour), the concentration at 18 h is 6.25 ng/mL. Besides, the concentration at 24 h in data set [1] (time 24 hour) was 1.6 ng/mL. The concentration at 30 h in data set [1] (time 30 hour) was 0.2 ng/mL. Besides, the concentration at 36 h in data set [1] (time 36 hour) was 0 ng/mL. The concentration at 42 h in data set [1] (time 42 hour) was 0 ng/mL. The concentration at 48 h in data set [1] (time 48 hour) was 0 ng/mL. Further, in data set [1] (time 54 hour), the concentration at 54 h was 0 ng/mL. Moreover, in data set [1] (time 60 hour), the concentration at 60 h is 0 ng/mL. In data set [1] (time 66 hour), the concentration at 66 h was 0 ng/mL. Further, the concentration at 72 h in data set [1] (time 72 hour) was 0 ng/mL. The “blood drug concentration of lidocaine” value in data set [2] (time 0 hour) is reported as 0 ng/mL; in data set [2] (time 0.25 hour), 1900 ng/mL; in data set [2] (time 0.5 hour), 5800 ng/mL; in data set [2] (time 1 hour), 8200 ng/mL; in data set [2] (time 2 hour) it was 10500 ng/mL; in data set [2] (time 4 hour), 800 ng/mL.
